Results from patent publication US8679842B2, “Method for increasing the pool of Ngn3+ endocrine progenitor cells and pancreatic endocrine cell mass” (Assistance Publique—Hopitaux de Paris, priority 2009, dated 2014).
Entries after “also recorded” stand apart in the source; their conditions may differ.

What was measured:
[1] = system: E13.5 Rat embryonic pancreases; assay: Immunohistochemistry and quantification of stained surface area / cell number in cultured embryonic pancreases; assay type: cell-based
Source text: (§1) Pregnant Wistar rats were purchased from the Janvier Breeding centre (CERJ, LeGenet, France). The first day postcoitum was taken as embryonic day (E) 0.5. Pregnant rats were killed with CO2 asphyxiation according to guidelines issued by the French Animal Care Committee. Dorsal pancreatic buds from E13.5 rat embryos were dissected as described previously (Miralles et al., 1998). Briefly, the stomach, pancreas and a small portion of the intestine were dissected together, and then the pancreas primordium was isolated.
(§2) Dorsal pancreatic rudiments were cultured on 0.45 μm filters (Millipore) at the air-medium interface in a 35 mm sterile Petri dishes containing 2 ml RPMI-1640 medium (Invitrogen) supplemented with 100 U/ml penicillin, 100 μg/ml streptomycin, 10 mmol/L HEPES, 2 mmol/L L-glutamine, 1× non-essential aminoacids (Invitrogen) and 10% heat-inactivated fetal calf serum (HyClone, Logan, Utah, USA). Glibenclamide (MP Biomedical) and nifedipine (Sigma), used at the indicated concentrations, were first dissolved as concentrated solutions in dimethylsulfoxide DMSO (Sigma), the final concentration of DMSO in the culture medium was less than 0.5% (vol/vol). The culture medium was changed every day. Glibenclamide and nifedipine were added to the media daily. The cultures were incubated at 37° C. in a humidified atmosphere composed of 95% air and 5% CO2. At the end of the culture period, the pancreases were photographed, and fixed as described below or harvested for RNA extraction
Immunochemistry—The pancreatic rudiments were fixed in 10% formalin, pre-embedded in agarose gel (4% of type VII low-gelling-temperature agarose (Sigma) in H2O) and embedded in paraffin. Immunohistochemistry was performed on 4-μm paraffin sections as previously described (Duvillie et al., 2006). The primary antibodies were mouse anti insulin (1/2000; Sigma), rabbit anti-glucagon (1/1000; Diasorin), rabbit anti-amylase (1/300; Sigma), rabbit anti-carboxypeptidase A (1/600; Biogenesis, Kidlington, Oxford, UK), rabbit anti-PDX1 (1/1000) (Duvillie et al., 2003) mouse anti-BrdUrd5 (1/2; Amersham Biosciences, Buckingham, UK), rabbit anti-PCK1/3, rabbit anti-Ngn3 (1/100, Guillemain et al., 2007), rabbit anti-KIR6.2 and anti-SUR1 (1/100, Santa Cruz). The fluorescent secondary antibodies were fluorescein anti-rabbit antibody (1/200; Jackson Immunoresearch, Baltimore, Md., USA), fluorescein goat anti-rabbit Alexa Fluor 488 (1/400; Invitrogen) and Texas red anti-mouse antibody (1/200; Jackson). Nuclei were stained in blue with Hoechst 33342 (0.3 μg/ml; Invitrogen). Ngn3 detection was performed as previously described (Guillemain et al., 2007) using the Vectastain elite ABC kit (Vector laboratories).
(§3) Quantification—To quantify the surface area of insulin, glucagon, PCSK1/3, CPA and amylase-expressing cells, all sections of each pancreatic rudiment were digitized. Alternate sections were examined to avoid counting the same cell twice. The surface of insulin, glucagon, PCSK1/3, CPA, amylase, and Hoechst stainings were quantified using Iplab (Scanalytics). The stained areas were summed to obtain the total surface area per rudiment in mm^2. To measure proliferation of the early progenitors expressing PDX1, we counted the frequency of BrdU positive progenitors expressing PDX1 among 3000 early progenitors expressing PDX1 per rudiment. To quantify the absolute number of NGN3-expressing cells, pancreatic rudiments were sectioned and all sections were stained with an anti-NGN3 antibody. Positive cells were counted on all sections of each pancreatic rudiment. A minimum of three rudiments was analyzed per condition.

[2] = system: early progenitors expressing PDX1; assay: BrdU incorporation: proliferation of early PDX1 progenitors in cultured embryonic pancreases; assay type: cell-based, rat; settings: 100 μM; 24 h culture, BrdU during last hour (FIG. 3D); control 31.24%±2.8%
Procedure: as §2, with “Glibenclamide and nifedipine were added to the media daily. The cultures were incubated at 37° C. in a humidified atmosphere composed of 95% air and 5% CO2. At the end of the culture period, the pancreases were photographed, and fixed as described below or harvested for RNA extraction” left out
as §3, with “Alternate sections were examined to avoid counting the same cell twice.” left out, “The stained areas were summed to obtain the total surface area per rudiment in mm^2.” left out, “A minimum of three rudiments was analyzed per condition.” left out

[3] = system: E13.5 Rat embryonic pancreases; assay: E13.5 rat embryonic pancreas organ culture: growth, morphology and toxicity (Hoechst staining); assay type: cell-based
Source text: as §1, §2, §3
Using the in vitro model as described above (E13.5 Rat embryonic pancreases cultured at the air/medium interface on a floating filter), we examined the effects of increased concentrations of the sulphonylurea glibenclamide (an inhibitor of KATP channels) on pancreas development. […] Under both conditions, the epithelium grew rapidly, spread into the mesenchyme, and developed lobules. There is no difference in apoptosis in pancreases cultured 7 days without or with 10 and 100 μM glibenclamide as shown by the Hoechst staining of the nuclei (FIG. 1B).

[4] = system: E13.5 Rat embryonic pancreases; assay: Real-time PCR of gene expression in cultured embryonic pancreases; assay type: cell-based
Source text: as §1, §2
Total RNA was isolated from pools of at least three pancreases using the Qiagen RNeasy Microkit (Qiagen, Courtaboeuf, France) and reverse transcribed using Superscript reagents (Invitrogen). Real-time PCR was performed with the 7300 Fast real-time PCR system (Applied Bio system) using either Taqman universal PCR universal PCR master mix or SYBR green PCR master mix (Applied Biosystem) with primers and labelled probes specific for each gene. Peptidylpropyl isomerase A/Cyclophilin A was used as endogenous control and E16.5 pancreas cDNA as calibrator sample. The data were analyzed by comparative cycle threshold method (Livak et al., 1997) and presented as the fold change in gene expression. At least three pools of explants were analysed by condition.

## COc1ccc(Cl)cc1C(=O)NCCc1ccc(S(=O)(=O)NC(=O)NC2CCCCC2)cc1 [glibenclamide]
[1]; 100 μM, 5 days of culture (FIG. 3B, 3C)
  number of NGN3+ cells vs control: threefold higher; also recorded: increased number of NGN3 positive nuclei
[1]; 100 μM, 7 days (FIG. 2D)
  surface area occupied by PCSK1/3 staining in PDX-1+ cells vs control: similar
[1]; 100 μM, 7 days (FIG. 2E)
  increase of the number of glucagon-expressing cells: 3.5 fold
[1]; 7 days of culture, vs control, data not shown
  decrease of surface area occupied by the insulin-cell population: 70%
[1]; Glib 5D pancreases, data not shown
  insulin-positive cells (insulin-staining area): significant increase
[1]; Glib pancreases: glibenclamide during the 14-day culture period, data not shown
  insulin-containing cells: less
[1]; Glib-5D: 100 μM only during first 5 days, D9, D11 or D14 (FIG. 4A)
  insulin-expressing cells: large number
[2]
  percentage of PDX-1+ cells that incorporate BrdU: 32.60%±4.2%
[3]; 10 nM, 100 nM, 1, 10 or 100 μM, 7 days of culture (FIG. 1A)
  pancreatic growth vs control: similar
[3]; 100 μM (FIG. 1A)
  branching of the epithelium: more branched
[3]; 10 and 100 μM, 7 days (FIG. 1B)
  apoptosis (Hoechst staining of the nuclei) vs control: no difference
[3]; 10 or 100 μM, 7 days (FIG. 1C)
  toxicity by overall size of pancreases (Hoechst surface area): lack of glibenclamide toxicity
[3]; 7 days, indicated concentrations (FIG. 1B)
  pycnotic nuclei (Hoechst staining): lack of pycnotic nuclei
[4]; 100 μM, D7 (FIG. 2F)
  Pou3F4/Brn4 mRNA level: significant increase
[4]; 100 μM, after 5 days of culture, p<0.001 (FIG. 3A)
  Ngn3 expression (mRNA) increase vs control: sevenfold
[4]; 100 μM, after the D5 peak (D7), p<0.001 (FIG. 3A)
  Ngn3 mRNA level vs control: dramatically higher
[4]; 100 μM, as early as D3 (FIG. 2A)
  insulin expression (mRNA): strongly reduced
[4]; 100 μM, day 1 and 3 (FIG. 3A)
  Ngn3 expression (mRNA) vs control: similar
[4]; 100 μM, over the 7 days of culture (FIG. 2B)
  ZnT-8 expression (mRNA): did not affect
[4]; 100 μM, over the 7 days of culture (FIG. 2C)
  MafA expression (mRNA): did not affect
[4]; D5, data not shown
  NeuroD1 mRNA level vs control: significantly increased
[4]; D7, data not shown
  NeuroD1 mRNA level vs control: reminded enhanced
[4]; Glib 5D, after 9, 11 and 14 days, p<0.01 (FIG. 4C)
  ZnT-8 expression vs control: dramatic increase
[4]; Glib 5D, after 9, 11 and 14 days, p<0.01 (FIG. 4D)
  MafA expression vs control: dramatic increase
[4]; Glib-5D, D7 (FIG. 4B)
  insulin mRNA level vs control: identical
[4]; Glib-5D, D9 (FIG. 4B)
  insulin mRNA level increase vs control: threefold
[4]; Glib-5D, D11 (FIG. 4B)
  insulin mRNA level increase vs control: twofold
[4]; Glib-5D, D14 (FIG. 4B)
  insulin mRNA level increase vs control: threefold
[4]; Glib-5D, after 7 days of culture (FIG. 4C)
  ZnT-8 expression vs control: similar
[4]; Glib-5D, after 7 days of culture (FIG. 4D)
  MafA expression vs control: similar
[4]; after 1 and 3 days of culture, data not shown
  NeuroD1 mRNA levels vs control: similar
[4]; after 7 days of culture, data not shown
  increase in somatostatin expression: two-fold
